Experimental data published in ChEMBL document CHEMBL1201861, “Genomics of Drug Sensitity in Cancer screening data, Wellcome Trust Sanger Institute”.

Experiments:
Assay in all cases: cells
LS-1034 = assay type: functional, cell-based, Homo sapiens; settings: Homo sapiens, LS-1034
Description: SANGER: Inhibition of human LS-1034 cell growth in a cell viability assay.

KALS-1 = assay type: functional, cell-based, Homo sapiens; settings: Homo sapiens, KALS-1; read-out: IC50;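 further: growth inhibition of KALS-1 cells, determined with a cell viability assay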
Description: SANGER: Inhibition of human KALS-1 cell growth in a cell viability assay.

CGTH-W-1 = assay type: functional, cell-based, Homo sapiens; settings: Homo sapiens, CGTH-W-1;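 further: growth inhibition of human CGTH-W-1 cells measured by cell viability assay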
Description: SANGER: Inhibition of human CGTH-W-1 cell growth in a cell viability assay.

ES7 = assay type: functional, cell-based, Homo sapiens; settings: Homo sapiens, ES7;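 further: growth inhibition of cultured human ES7 cells, read out as cell viability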
Description: SANGER: Inhibition of human ES7 cell growth in a cell viability assay.

KM12 = assay type: functional, cell-based, Homo sapiens; settings: Homo sapiens, KM12;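 further: KM12 cell growth inhibition, read out with a cell viability assay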
Description: SANGER: Inhibition of human KM12 cell growth in a cell viability assay.

SW982 = assay type: functional, cell-based; settings: Homo sapiens;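 further: growth inhibition of SW982 cells, read out with a cell viability assay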
Description: SANGER: Inhibition of human SW982 cell growth in a cell viability assay.

NCI-H1650 = assay type: functional, cell-based, Homo sapiens; settings: Homo sapiens, NCI-H1650;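 further: growth inhibition of human NCI-H1650 cells measured by a cell viability assay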
Description: SANGER: Inhibition of human NCI-H1650 cell growth in a cell viability assay.

RH-1 = assay type: functional, cell-based, Homo sapiens; settings: Homo sapiens, RH-1;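 further: growth inhibition of human RH-1 cells, read out with a cell viability assay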
Description: SANGER: Inhibition of human RH-1 cell growth in a cell viability assay.

D-263MG = assay type: functional, cell-based, Homo sapiens; settings: Homo sapiens, D-263MG
Description: SANGER: Inhibition of human D-263MG cell growth in a cell viability assay.

GT3TKB = assay type: functional, cell-based, Homo sapiens; settings: Homo sapiens, GT3TKB;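 further: growth inhibition of the cell line, read out with a cell viability assay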
Description: SANGER: Inhibition of human GT3TKB cell growth in a cell viability assay.

Mo = assay type: functional, cell-based, Homo sapiens; settings: Homo sapiens, Mo
Description: SANGER: Inhibition of human Mo-T cell growth in a cell viability assay.

KINGS-1 = assay type: functional, cell-based, Homo sapiens; settings: Homo sapiens, KINGS-1;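 further: cell viability assay measuring suppression of KINGS-1 cell growth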
Description: SANGER: Inhibition of human KINGS-1 cell growth in a cell viability assay.

NCI-H1648 = assay type: functional, cell-based, Homo sapiens; settings: Homo sapiens, NCI-H1648;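 further: cell viability assay measuring inhibition of NCI-H1648 cell growth, from the Sanger screening data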
Description: SANGER: Inhibition of human NCI-H1648 cell growth in a cell viability assay.

OVCAR-4 = assay type: functional, cell-based, Homo sapiens; settings: Homo sapiens, OVCAR-4;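 further: growth inhibition of human OVCAR-4 cells, measured with a cell viability assay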
Description: SANGER: Inhibition of human OVCAR-4 cell growth in a cell viability assay.

GOTO = assay type: functional, cell-based, Homo sapiens; settings: Homo sapiens, GOTO;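 further: growth inhibition of GOTO cells, read out by a cell viability assay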
Description: SANGER: Inhibition of human GOTO cell growth in a cell viability assay.

DSH1 = assay type: functional, cell-based; settings: Homo sapiens;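 further: growth inhibition of human DSH1 cells, measured with a cell viability readout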
Description: SANGER: Inhibition of human DSH1 cell growth in a cell viability assay.

KNS-81-FD = assay type: functional, cell-based, Homo sapiens; settings: Homo sapiens, KNS-81-FD;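 further: growth inhibition of KNS-81-FD cells, read out with a cell viability assay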
Description: SANGER: Inhibition of human KNS-81-FD cell growth in a cell viability assay.

NB69 = assay type: functional, cell-based, Homo sapiens; settings: Homo sapiens, NB69;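 further: growth inhibition of NB69 cells, determined by a cell viability assay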
Description: SANGER: Inhibition of human NB69 cell growth in a cell viability assay.

HL-60 = assay type: functional, cell-based, Homo sapiens; settings: Homo sapiens, HL-60;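 further: growth inhibition of human HL-60 cells, read out with a cell viability assay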
Description: SANGER: Inhibition of human HL-60 cell growth in a cell viability assay.

ES1 = assay type: functional, cell-based, Homo sapiens; settings: Homo sapiens, ES1;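 further: growth inhibition of ES1 cells, read out with a cell viability assay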
Description: SANGER: Inhibition of human ES1 cell growth in a cell viability assay.

NCI-H1155 = assay type: functional, cell-based, Homo sapiens; settings: Homo sapiens, NCI-H1155;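 further: cell growth inhibition measured by a viability assay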
Description: SANGER: Inhibition of human NCI-H1155 cell growth in a cell viability assay.

A4-Fuk = assay type: functional, cell-based, Homo sapiens; settings: Homo sapiens, A4-Fuk;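 further: growth inhibition of A4-Fuk cells, read out by a cell viability assay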
Description: SANGER: Inhibition of human A4-Fuk cell growth in a cell viability assay.

NOMO-1 = assay type: functional, cell-based, Homo sapiens; settings: Homo sapiens, NOMO-1;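 further: growth inhibition of human NOMO-1 cells measured by a cell viability assay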
Description: SANGER: Inhibition of human NOMO-1 cell growth in a cell viability assay.

MLMA = assay type: functional, cell-based, Homo sapiens; settings: Homo sapiens, MLMA;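 further: growth inhibition of MLMA cells (human), determined through a cell viability readout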
Description: SANGER: Inhibition of human MLMA cell growth in a cell viability assay.

PSN1 = assay type: functional, cell-based, Homo sapiens; settings: Homo sapiens, PSN1;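 further: suppression of growth of human PSN1 cells, read out by a cell viability assay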
Description: SANGER: Inhibition of human PSN1 cell growth in a cell viability assay.

OS-RC-2 = assay type: functional, cell-based, Homo sapiens; settings: Homo sapiens, OS-RC-2;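 further: growth inhibition of human OS-RC-2 cells, measured by a cell viability assay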
Description: SANGER: Inhibition of human OS-RC-2 cell growth in a cell viability assay.

COLO-684 = assay type: functional, cell-based, Homo sapiens; settings: Homo sapiens, COLO-684
Description: SANGER: Inhibition of human COLO-684 cell growth in a cell viability assay.

EW-18 = assay type: functional, cell-based, Homo sapiens; settings: Homo sapiens, EW-18; read-out: IC50;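 further: growth inhibition of EW-18 cells, read out by a cell viability assay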
Description: SANGER: Inhibition of human EW-18 cell growth in a cell viability assay.

ES3 = assay type: functional, cell-based, Homo sapiens; settings: Homo sapiens, ES3;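 further: growth inhibition of ES3 cells, read out with a cell viability assay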
Description: SANGER: Inhibition of human ES3 cell growth in a cell viability assay.

NCI-H446 = assay type: functional, cell-based, Homo sapiens; settings: Homo sapiens, NCI-H446;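 further: growth inhibition of NCI-H446 cells determined by a cell viability assay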
Description: SANGER: Inhibition of human NCI-H446 cell growth in a cell viability assay.

SW 954 = assay type: functional, cell-based, Homo sapiens; settings: Homo sapiens, SW 954;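 further: growth inhibition of SW954 human cancer cells, read out as cell viability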
Description: SANGER: Inhibition of human SW954 cell growth in a cell viability assay.

IST-MEL1 = assay type: functional, cell-based, Homo sapiens; settings: Homo sapiens, IST-MEL1;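 further: growth inhibition of the cell line, read out with a cell viability assay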
Description: SANGER: Inhibition of human IST-MEL1 cell growth in a cell viability assay.

LXF-289 cell line = assay type: functional, cell-based; settings: Homo sapiens
Description: SANGER: Inhibition of human LXF-289 cell growth in a cell viability assay.

IA-LM = assay type: functional, cell-based; settings: Homo sapiens;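 further: cell viability assay measuring growth inhibition of human IA-LM cells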
Description: SANGER: Inhibition of human IA-LM cell growth in a cell viability assay.

SK-N-DZ = assay type: functional, cell-based, Homo sapiens; settings: Homo sapiens, SK-N-DZ; read-out: IC50;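 further: growth inhibition of the cancer cell line, read out through a viability assay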
Description: SANGER: Inhibition of human SK-N-DZ cell growth in a cell viability assay.

SF-268 = assay type: functional, cell-based, Homo sapiens; settings: Homo sapiens, SF-268;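 further: growth inhibition of SF-268 cells determined with a cell viability assay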
Description: SANGER: Inhibition of human SF268 cell growth in a cell viability assay.

AM-38 = assay type: functional, cell-based, Homo sapiens; settings: Homo sapiens, AM-38;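 further: growth inhibition of AM-38 cells of human origin, read out by a cell viability assay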
Description: SANGER: Inhibition of human AM-38 cell growth in a cell viability assay.

SBC-1 = assay type: functional, cell-based, Homo sapiens; settings: Homo sapiens, SBC-1;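 further: cell viability assay measuring growth inhibition of the SBC-1 cell line, IC50 being the concentration that halves growth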
Description: SANGER: Inhibition of human SBC-1 cell growth in a cell viability assay.

SNU-C2B = assay type: functional, cell-based; settings: Homo sapiens;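 further: cell viability readout used to measure compound-driven suppression of SNU-C2B cell proliferation, IC50 marking half-maximal growth inhibition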
Description: SANGER: Inhibition of human SNU-C2B cell growth in a cell viability assay.

HOP-62 = assay type: functional, cell-based, Homo sapiens; settings: Homo sapiens, HOP-62;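 further: cell growth inhibition determined with a viability assay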
Description: SANGER: Inhibition of human HOP-62 cell growth in a cell viability assay.

C2BBe1 = assay type: functional, cell-based, Homo sapiens; settings: Homo sapiens, C2BBe1;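 further: growth inhibition of C2BBe1 cells, read out through a viability assay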
Description: SANGER: Inhibition of human C2BBe1 cell growth in a cell viability assay.

EW-16 = assay type: functional, cell-based, Homo sapiens; settings: Homo sapiens, EW-16;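 further: growth inhibition of human EW-16 cells, read out as cell viability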
Description: SANGER: Inhibition of human EW-16 cell growth in a cell viability assay.

LB2518-MEL = assay type: functional, cell-based; settings: Homo sapiens;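 further: growth inhibition of human LB2518-MEL cells, measured with a cell viability assay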
Description: SANGER: Inhibition of human LB2518-MEL cell growth in a cell viability assay.

TGBC1TKB = assay type: functional, cell-based, Homo sapiens; settings: Homo sapiens, TGBC1TKB;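 further: growth inhibition of TGBC1TKB cells, read out by a cell viability assay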
Description: SANGER: Inhibition of human TGBC1TKB cell growth in a cell viability assay.

RPMI-8226 = assay type: functional, cell-based, Homo sapiens; settings: Homo sapiens, RPMI-8226
Description: SANGER: Inhibition of human RPMI-8226 cell growth in a cell viability assay.

KM-H2 = assay type: functional, cell-based, Homo sapiens; settings: Homo sapiens, KM-H2;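 further: growth inhibition of KM-H2 cells, read out by a cell viability assay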
Description: SANGER: Inhibition of human KM-H2 cell growth in a cell viability assay.

SK-N-FI = assay type: functional, cell-based, Homo sapiens; settings: Homo sapiens, SK-N-FI;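 further: cell viability assay measuring growth inhibition of human SK-N-FI cells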
Description: SANGER: Inhibition of human SK-N-FI cell growth in a cell viability assay.

LB2241-RCC = assay type: functional, cell-based, Homo sapiens; settings: Homo sapiens, LB2241-RCC;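 further: cell viability assay measuring how strongly the cultured human renal carcinoma line is prevented from growing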
Description: SANGER: Inhibition of human LB2241-RCC cell growth in a cell viability assay.

NCI-H226 = assay type: functional, cell-based, Homo sapiens; settings: Homo sapiens, NCI-H226;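 further: cell viability read-out used to gauge growth inhibition of the cells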
Description: SANGER: Inhibition of human NCI-H226 cell growth in a cell viability assay.

KARPAS-45 = assay type: functional, cell-based, Homo sapiens; settings: Homo sapiens, KARPAS-45;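 further: inhibition of cell line growth, read out through a viability assay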
Description: SANGER: Inhibition of human KARPAS-45 cell growth in a cell viability assay.

C=CC(=O)N1CCCC(Nc2nc(Nc3ccc(N(C)C(=O)CC)cc3)nc3[nH]cnc23)C1 (stereo not given)
IC50 (LS-1034): > 10.2 µM
IC50 (KALS-1): > 10.2 µM
IC50 (CGTH-W-1): > 10.2 µM
IC50 (ES7): > 10.2 µM
IC50 (KM12): > 10.2 µM
IC50 (SW982): > 10200 nM
IC50 (NCI-H1650): > 10.2 µM
IC50 (RH-1): > 10.2 µM
IC50 (D-263MG): > 10200 nM
IC50 (GT3TKB): > 10.2 µM
IC50 (Mo): > 10.2 µM
IC50 (KINGS-1): > 10200 nM
IC50 (NCI-H1648): 8.58 µM
IC50 (OVCAR-4): > 10.2 µM
IC50 (GOTO): > 10.2 µM
IC50 (DSH1): > 10.2 µM
IC50 (KNS-81-FD): > 10.2 µM
IC50 (NB69): > 10.2 µM
IC50 (HL-60): > 10.2 µM
IC50 (ES1): > 10.2 µM
IC50 (NCI-H1155): > 10.2 µM
IC50 (A4-Fuk): > 10.2 µM
IC50 (NOMO-1): > 10.2 µM
IC50 (MLMA): > 10200 nM
IC50 (PSN1): > 10.2 µM
IC50 (OS-RC-2): > 10200 nM
IC50 (COLO-684): > 10.2 µM
IC50 (EW-18): > 10.2 µM
IC50 (ES3): > 10.2 µM
IC50 (NCI-H446): > 10.2 µM
IC50 (SW 954): 2560 nM
IC50 (IST-MEL1): > 10.2 µM
IC50 (LXF-289 cell line): > 10200 nM
IC50 (IA-LM): > 10.2 µM
IC50 (SK-N-DZ): > 10.2 µM
IC50 (SF-268): > 10200 nM
IC50 (AM-38): > 10.2 µM
IC50 (SBC-1): 7.97 µM
IC50 (SNU-C2B): > 10.2 µM
IC50 (HOP-62): > 10200 nM
IC50 (C2BBe1): > 10.2 µM
IC50 (EW-16): 2590 nM
IC50 (LB2518-MEL): > 10200 nM
IC50 (TGBC1TKB): > 10.2 µM
IC50 (RPMI-8226): > 10.2 µM
IC50 (KM-H2): > 10.2 µM
IC50 (SK-N-FI): > 10.2 µM
IC50 (LB2241-RCC): > 10.2 µM
IC50 (NCI-H226): > 10.2 µM
IC50 (KARPAS-45): > 10.2 µM

COc1ccc(N(C(=O)Oc2c(C)cccc2C)c2ccnc(Nc3ccc(N4CCN(C)CC4)cc3)n2)c(OC)c1
IC50 (LS-1034): > 5.12 µM
IC50 (KALS-1): > 5.12 µM
IC50 (CGTH-W-1): > 5.12 µM
IC50 (ES7): > 5.12 µM
IC50 (KM12): > 5.12 µM
IC50 (SW982): 858 nM
IC50 (NCI-H1650): > 5.12 µM
IC50 (RH-1): > 5.12 µM
IC50 (D-263MG): 2290 nM
IC50 (GT3TKB): > 5.12 µM
IC50 (Mo): > 5.12 µM
IC50 (KINGS-1): 1970 nM
IC50 (NCI-H1648): 0.516 µM
IC50 (OVCAR-4): > 5.12 µM
IC50 (GOTO): > 5.12 µM
IC50 (DSH1): > 5.12 µM
IC50 (KNS-81-FD): > 5.12 µM
IC50 (NB69): > 5.12 µM
IC50 (HL-60): > 5.12 µM
IC50 (ES1): > 5.12 µM
IC50 (NCI-H1155): > 5.12 µM
IC50 (A4-Fuk): > 5.12 µM
IC50 (NOMO-1): > 5.12 µM
IC50 (MLMA): 1920 nM
IC50 (PSN1): > 5.12 µM
IC50 (OS-RC-2): 350 nM
IC50 (COLO-684): > 5.12 µM
IC50 (EW-18): > 5.12 µM
IC50 (ES3): > 5.12 µM
IC50 (NCI-H446): > 5.12 µM
IC50 (SW 954): 372 nM
IC50 (IST-MEL1): > 5.12 µM
IC50 (LXF-289 cell line): 1270 nM
IC50 (IA-LM): > 5.12 µM
IC50 (SK-N-DZ): > 5.12 µM
IC50 (SF-268): 2490 nM
IC50 (AM-38): > 5.12 µM
IC50 (SBC-1): > 5.12 µM
IC50 (SNU-C2B): > 5.12 µM
IC50 (HOP-62): 916 nM
IC50 (C2BBe1): > 5.12 µM
IC50 (EW-16): > 5120 nM
IC50 (LB2518-MEL): 46.7 nM
IC50 (TGBC1TKB): > 5.12 µM
IC50 (RPMI-8226): > 5.12 µM
IC50 (KM-H2): > 5.12 µM
IC50 (SK-N-FI): > 5.12 µM
IC50 (LB2241-RCC): > 5.12 µM
IC50 (NCI-H226): > 5.12 µM
IC50 (KARPAS-45): > 5.12 µM
